From the METLIN SMRT retention time set (Domingo-Almenara et al. 2019)

Assay: gradient 5% acetonitrile 3 min, to 50% in 2 min, to 85% in 15 min, held 3 min, 100 µL/min
Conditions: column: Zorbax Extend-C18 2.1 x 50 mm; eluents: water / acetonitrile, 0.1% formic acid
How it was run: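 Retention times come from adduct peaks that were picked computationally and then checked by hand. The standards, pure and pooled in mixtures of ~100 molecules, were run on a Zorbax Extend-C18 column (2.1 × 50 mm, 1.8 μm) at 100 μL/min with water and acetonitrile, each with 0.1% formic acid. Detection was by quadrupole time-of-flight mass spectrometry in positive and negative ionization mode, with a dead volume of 40 μL and a dwell volume of 900 μL.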

SMILES	RP-LC retention time
COc1cccc(-c2cc(N3CCN(C(=O)NC(C)C)CC3)ncn2)c1	612 s
CCCN1C(=O)c2cc(S(=O)(=O)NCc3ccccc3)ccc2Oc2cccnc21	1050 s
COc1ccc(Cn2c(C)c(CNCc3ccc(C)o3)c(C(=O)O)c2C)cc1	714 s
COC(=O)C(NC(=O)Nc1ccc(-c2nc(-c3ccccc3)co2)cc1)c1ccccc1 (centres undefined)	1090 s
CC(=O)Nc1ccc(S(=O)(=O)NCC2CCN(Cc3cccs3)CC2)c(C)c1	547 s
Fc1ccc(Cl)cc1-c1nnc(-c2ccc(-n3ccnc3)nc2)o1	681 s
O=C(NC1CC1)c1cn(CCC2CCCCN2C(=O)c2ccoc2)nn1 (centres undefined)	641 s
COc1ccc(NC(=O)CN2C(=O)c3ccccc3Sc3ncccc32)cc1	758 s
CCc1c(C(=O)O)nnn1-c1ccc2c(c1)OCCO2	702 s
O=C(c1cccc(Cl)c1)N1CCN(c2cc(-c3cccs3)[nH]n2)CC1	816 s
O=C(Nc1ccc(Br)cc1F)C1CCN(C(=O)c2cc(-c3ccncc3)n[nH]2)CC1	632 s
CCOC(=O)Nc1nc2c(s1)CN(S(=O)(=O)c1c(C)noc1C)CC2	747 s
O=C(COc1ccccc1)Nc1nonc1NC(=O)COc1ccccc1	854 s
COc1cccc(C(C#N)N2N=C(C)CC2c2ccccc2)c1O (centres undefined)	965 s
CC1(C(=O)NC2CCCCCC2)Cn2c(cc3occc32)C(=O)N1Cc1ccccn1 (centres undefined)	766 s
Cc1cc(C)c(S(=O)(=O)N2CCCC(C(=O)Nc3ccccc3F)C2)c(C)c1 (centres undefined)	1090 s
COc1ccc(CN2CCC3(CC2)CC(C)(O)CCO3)c(OC)c1 (centres undefined)	607 s
Cc1nn2c(CNS(=O)(=O)c3ccc(C(C)C)cc3)c(-c3ccccc3)nc2s1	1010 s
O=S(=O)(c1cccc2cccnc12)N1CCCn2nc(-c3cccs3)cc2C1	900 s
CN(C)CCNc1oc(-c2ccc(COc3ccc(Cl)cc3)o2)nc1C#N	988 s
Cn1c(=O)c(=O)n(C)c2cc(N3CCCC3)c(NC(=O)C3CC3)cc21	614 s
CCOc1ccc(CC(=O)N2CCN(S(=O)(=O)c3cc4c5c(c3)CCC(=O)N5CCC4)CC2)cc1	823 s

SMILES	RP-LC retention time
Cc1ccc(NC(=O)c2cc(C3CC3)n3nccc3n2)c(C)c1	1110 s
COc1ccccc1CNC(=O)C1CCCN(c2cnc3nc(C)c(C)nc3c2)C1 (centres undefined)	727 s
CC(NC(=O)C(=O)N1CCOCC1)C(c1cccs1)N1CCN(Cc2ccccc2)CC1 (centres undefined)	600 s
Cn1cc(S(=O)(=O)N2CCCCC2)cc1C(=O)Nc1ccc(F)c(Cl)c1	1100 s
Cc1ccc(C(=O)NCc2nc(-c3ccc4c(c3)nnn4C)no2)cc1	731 s
CC(C)(C)C(=O)N1CC(c2nc(-c3ccc(F)cc3)no2)C2(CCOCC2)C1 (centres undefined)	964 s
CCS(=O)(=O)c1nc2ccc(NS(=O)(=O)c3ccc(C4CCCCC4)cc3)cc2s1	1120 s
Cc1nnc2c(=O)n(CC(=O)N3CCC(Cc4ccccc4)CC3)c3cccnc3n12	814 s
O=C(NCCCN1CCCCC1)C1CCCN(c2ncc(-c3ccc(F)cc3)cn2)C1 (centres undefined)	684 s
CC(C)CCNC(=O)C1CC(=O)N(CCc2c[nH]c3ccc(Cl)cc23)C1 (centres undefined)	809 s
CCC(C)NC(=O)C1CCCN(C(=O)c2[nH]c(C)c(C(=O)OC(C)C)c2C)C1 (centres undefined)	774 s
CCOc1nc2ccccc2nc1N1CCCC(C(=O)Nc2ccc(OC)c(Cl)c2)C1 (centres undefined)	1240 s
Cc1nn(-c2ccccc2)c(C)c1S(=O)(=O)N1CCN(c2ccccn2)CC1	664 s
Cc1noc(C)c1S(=O)(=O)N1CCC(c2noc(-c3cccnc3)n2)C1 (centres undefined)	796 s
COc1cc(OC)cc(C(=O)NC2CCN(c3cc(-c4ccc(F)cc4)[nH]n3)C2)c1 (centres undefined)	745 s
O=C(Nc1cccc(Cl)c1)c1c(O)c2cccnc2n(-c2ccc(F)cc2)c1=O	1320 s
Cc1cc(NC(=O)c2nc(C(C)C)oc2C)ccc1Cl	1250 s
COc1cc(CN2CC[C@@H]3CN(S(C)(=O)=O)[C@@H]3C2)ccc1F	598 s
O=C(Cc1scnc1-c1cccs1)N1CCN(c2ccccn2)CC1	596 s
CCn1cc(-c2nc(CC(=O)NCc3cccc(Cl)c3)cs2)c2cccnc21	903 s
CCOC(=O)C1=C(CN2CCN(c3ncccn3)CC2)NC(=O)NC1c1ccc(Cl)cc1 (centres undefined)	669 s
Cc1ccc(-c2nnc3ccc(N4CCC(C(=O)NC5CC5)CC4)nn23)cc1	736 s
